{"source": "ChEMBL document CHEMBL1159239", "about": "“Patellamide F, A new cytotoxic cyclic peptide from the colonial ascidian Lissoclinum patella” (1995)", "experiment": "Cytotoxicity against human NCI60 cells", "type": "functional", "settings": "read-out: LC50 (the source's name)", "data": [{"smiles": "CC[C@H](C)[C@@H]1NC(=O)c2csc(n2)[C@@H](C)NC(=O)[C@H]2N=C(O[C@@H]2C)[C@H](CC(C)C)NC(=O)c2csc(n2)[C@@H](Cc2ccccc2)NC(=O)[C@H]2N=C1O[C@@H]2C", "note": "[PATELLAMIDE B]", "values": [{"measurement": "CC50", "result": 13, "unit": "µM"}]}, {"smiles": "CC(C)[C@@H]1NC(=O)c2csc(n2)[C@@H](C(C)C)NC(=O)[C@H]2N=C(O[C@@H]2C)[C@H](C(C)C)NC(=O)c2csc(n2)[C@@H](Cc2ccccc2)NC(=O)[C@@H]2COC1=N2", "note": "[PATELLAMIDE F]", "values": [{"measurement": "CC50", "result": 48, "unit": "µM"}]}, {"smiles": "CC(C)C[C@H]1NC(=O)[C@H]2N=C(O[C@@H]2C)[C@H]2CSSC[C@@H](NC(=O)c3csc1n3)C1=N[C@H](C(=O)N[C@H](CC(C)C)c3nc(cs3)C(=O)N2)[C@@H](C)O1", "note": "[ULITHIACYCLAMIDE]", "values": [{"measurement": "CC50", "result": 3, "unit": "µM"}]}]}
